Source: patent publication US10087188B2, “Benzamide imidazopyrazine Btk inhibitors” (MERCK SHARP & DOHME CORP., priority 2014, dated 2018)
Like-named read-outs stand apart in the source and are kept apart here.

Columns and labels:
[1] = target: BTK enzyme (recombinant full-length BTK, hBTK) (Homo sapiens (Human), UniProt Q06187); assay: Btk enzyme activity assay, LANCE TR-FRET; format: biochemical; settings: 50 pM hBTK, 2 μM biotin-A5-peptide, 25 μM ATP; 60 minute compound & enzyme incubation; read-out: BTK binding IC50
BTK enzyme (recombinant full-length BTK, hBTK), sequence (Q06187 whole entry): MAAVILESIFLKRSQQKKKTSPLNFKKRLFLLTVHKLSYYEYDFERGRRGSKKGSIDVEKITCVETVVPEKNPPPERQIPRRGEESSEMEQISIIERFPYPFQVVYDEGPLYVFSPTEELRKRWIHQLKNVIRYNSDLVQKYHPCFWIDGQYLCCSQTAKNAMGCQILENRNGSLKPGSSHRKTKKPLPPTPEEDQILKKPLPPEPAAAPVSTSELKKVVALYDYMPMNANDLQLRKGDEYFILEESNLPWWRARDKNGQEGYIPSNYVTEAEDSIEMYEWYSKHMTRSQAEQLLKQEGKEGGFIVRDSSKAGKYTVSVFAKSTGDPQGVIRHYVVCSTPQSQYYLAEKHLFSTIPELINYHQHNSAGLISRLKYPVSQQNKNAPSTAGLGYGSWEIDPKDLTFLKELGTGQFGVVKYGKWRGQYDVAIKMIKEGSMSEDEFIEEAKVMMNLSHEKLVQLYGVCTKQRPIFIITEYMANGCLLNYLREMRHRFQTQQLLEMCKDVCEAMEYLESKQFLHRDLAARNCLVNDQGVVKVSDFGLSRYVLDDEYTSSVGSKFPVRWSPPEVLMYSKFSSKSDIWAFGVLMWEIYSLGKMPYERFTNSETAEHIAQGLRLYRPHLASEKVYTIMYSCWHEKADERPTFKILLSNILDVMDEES
Experimental: Btk Enzyme Activity Assay Methods
BTK enzymatic activity was determined with the LANCE (Lanthanide Chelate Excite) TR-FRET (Time-resolved fluorescence resonance energy transfer) assay. […] After 60 minutes incubation with detection reagents, reaction plates were read on a PerkinElmer EnVision plate reader using standard TR-FRET protocol.

HeLa cells = assay: [3H] Adenosine uptake assay; format: cell-based; settings: accumulation of tritiated adenosine into HeLa cells, compound concentration range 10 μM to 0.032 nM, read-out: ADU inhibition IC50 (adenosine uptake inhibition potency)
Outline: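 Accumulation of tritiated adenosine in adherent HeLa cells, detected by scintillant-plate coincidence counting, gives IC50 via 4-parameter robust fit. Compound (constant 0.25% DMSO) applied 30 min ahead, then 60 min radiolabel exposure (added from 500 nM solution), ambient conditions, HBSS with 5% FBS.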

Structure (SMILES) | IC50 [1] [nM] | IC50 (HeLa cells; Homo sapiens, HeLa) [nM] | IC50 (HeLa cells) [nM]
C[C@@]1(C(=O)O)CCC[C@H](c2nc(-c3ccc(C(=O)Nc4cc(C5CC5)ccn4)cc3F)c3c(N)nccn23)C1 [Example 160, (1R,3S)-3-(8-amino-1-{4-[(4-cyclopropylpyridin-2-yl)carbamoyl]-2-fluorophenyl}imidazo [1,5-a]pyrazin-3-yl)-1-methylcyclohexane-carboxylic acid] | 0.96 | 4510 | 
CCOc1cc(C(=O)Nc2cc(C(F)(F)F)ccn2)ccc1-c1nc([C@@H]2CC[C@@H](C(=O)O)O2)n2ccnc(N)c12 [Example 116, (2S,5S)-5-[8-amino-1-(2-ethoxy-4-{[4-(trifluoromethyl)pyridin-2-yl]carbamoyl}phenyl)imidazo[1,5-a]pyrazin-3-yl]tetrahydrofuran-2-carboxylic acid] | 22 |  | 1140
COc1cc(C(=O)Nc2cc(C(F)(F)F)ccn2)ccc1-c1nc([C@H]2CN(C3CCC(C)(C(=O)O)CC3)CCO2)n2ccnc(N)c12 (stereo partly drawn) [Example 180, 4-{(2R)-2-[8-amino-1-(2-methoxy-4-{[4-(trifluoromethyl)pyridin-2-yl]carbamoyl}phenyl)imidazo [1,5-a]pyrazin-3-yl]morpholin-4-yl}-1-methylcyclohexanecarboxylic acid] | 1.3 | 6420 | 3940
CCOc1cc(C(=O)Nc2cc(C3CC3)ccn2)cc(F)c1-c1nc([C@@]2(C)CC[C@](C)(C(=O)O)C2)n2ccnc(N)c12 [Example 123, (1S,3S)-3-(8-amino-1-{4-[(4-cyclopropylpyridin-2-yl)carbamoyl]-2-ethoxy-6-fluorophenyl}imidazo [1,5-a]pyrazin-3-yl)-1,3-dimethylcyclopentane carboxylic acid] | 0.57 | 10000 | 
CC(C)[C@]1(C(=O)O)CC[C@@H](c2nc(-c3ccc(C(=O)Nc4cc(C(F)(F)F)ccn4)cc3)c3c(N)ncc(Cl)n23)C1 [Example 106, (1S.3R)-3-[8-amino-5-chloro-1-(4-{[4-(trifluoromethyl)pyridin-2-yl]carbamoyl}phenyl)imidazo[1,5-a]pyrazin-3-yl]-1-(1-methylethyl) cyclopentane-carboxylic acid] | 0.74 | 781 | 
Nc1nccn2c([C@H]3CC[C@H](CC(=O)O)C3)nc(-c3ccc(C(=O)Nc4cc(C(F)(F)F)ccn4)cc3)c12 [Example 51, {(1S,3S)-3-[8-amino-1-(4-{[4-(trifluoromethyl)pyridin-2-yl]carbamoyl}phenyl)imidazo[1,5-a]pyrazin-3-yl]cyclopentyl}acetic acid] | 0.29 | 4000 | 
CCOc1cc(C(=O)Nc2cc(C(F)(F)F)n(C)n2)ccc1-c1nc([C@@H]2CC[C@](C(=O)O)(C(C)C)C2)n2ccnc(N)c12 [Example 59, (1R,3R)-3-[8-amino-1-(2-ethoxy-4-{[1-methyl-5-(trifluoromethyl)-1H-pyrazol-3-yl]carbamoyl}phenyl)imidazo[1,5-a]pyrazin-3-yl]-1-(1-methylethyl) cyclopentane-carboxylic acid] | 24.1 | 10000 | 
CCOc1cc(C(=O)Nc2cc(C(F)(F)F)ccn2)ccc1-c1nc([C@@H]2CC[C@H](C(C)C)[C@H](C(=O)O)C2)n2ccnc(N)c12 [Example 98, (1R,2R,5R)-5-[8-amino-1-(2-ethoxy-4-{[4-(trifluoromethyl)pyridin-2-yl]carbamoyl}phenyl)imidazo[1,5-a]pyrazin-3-yl]-2-(1-methylethyl) cyclohexane-carboxylic acid] | 4 | 8770 | 
C[C@H]1CO[C@@H](c2nc(-c3ccc(C(=O)Nc4cc(C(F)(F)F)ccn4)cc3F)c3c(N)ncc(Cl)n23)CN1[C@H]1CC[C@](C)(C(=O)O)CC1 [Example 200, trans-4-{(2R,5S)-2-[8-amino-5-chloro-1-(2-fluoro-4-{[4-(trifluoromethyl)pyridin-2-yl]carbamoyl}phenyl)imidazo [1,5-a]pyrazin-3-yl]-5-methylmorpholin-4-yl}-1-methylcyclohexanecarboxylic acid] | 0.42 | 1690 | 
CC1(C(=O)O)CCC(c2nc(-c3ccc(C(=O)Nc4cc(C(F)(F)F)ccn4)cc3F)c3c(N)ncc(Cl)n23)CC1 (stereo not drawn) [Example 163, 4-[8-amino-5-chloro-1-(2-fluoro-4-{[4-(trifluoromethyl)pyridin-2-yl]carbamoyl}phenyl)imidazo[1,5-a]pyrazin-3-yl]-1-methylcyclohexane-carboxylic acid] | 1.9 | 6760 | 
Nc1nccn2c(-c3ccc(C(=O)O)c(F)c3)nc(-c3ccc(C(=O)Nc4cc(C(F)(F)F)ccn4)cc3)c12 [Example 25, 4-[8-amino-1-(4-{[4-(trifluoromethyl)pyridin-2-yl]carbamoyl}phenyl)imidazo[1,5-a]pyrazin-3-yl]-2-fluorobenzoic acid] | 1.7 | 6110 | 

More lines, in order of falling IC50 [1], values ahead:

IC50 [1] [nM] | IC50 (HeLa cells; Homo sapiens, HeLa) [nM] | IC50 (HeLa cells) [nM] | Structure (SMILES)
61.2 | 5410 |  | COc1cc(C(=O)Nc2cc(C(F)(F)F)ccn2)ccc1-c1nc([C@H]2CN(C(C)(C)C(=O)O)CCO2)n2ccnc(N)c12 [Example 184, 2-{(2R)-2-[8-amino-1-(2-methoxy-4-{[4-(trifluoromethyl)pyridin-2-yl]carbamoyl}phenyl)imidazo [1,5-a]pyrazin-3-yl]morpholin-4-yl}-2-methylpropanoic acid]
7.5 |  | 4440 | C[C@]1(C(=O)O)CC[C@H](N2CCO[C@@H](c3nc(-c4ccc(C(=O)Nc5cc(C(F)F)ccn5)cc4)c4c(N)ncc(Cl)n34)C2)CC1 (stereo in doubt) [Example 196, trans-4-{(2R)-2-[8-amino-5-chloro-1-(4-{[4-(difluoromethyl)pyridin-2-yl]carbamoyl}phenyl)imidazo [1,5-a]pyrazin-3-yl]morpholin-4-yl}-1-methylcyclohexanecarboxylic acid]
4.2 | 10000 |  | CCOc1cc(C(=O)Nc2cc(C(F)(F)F)ccn2)ccc1-c1nc([C@@]2(C)CC[C@@](C)(C(=O)O)C2)n2ccnc(N)c12 [Example 86, (1R,3S)-3-[8-amino-1-(2-ethoxy-4-{[4-(trifluoromethyl)pyridin-2-yl]carbamoyl}phenyl)imidazo[1,5-a]pyrazin-3-yl]-1,3-dimethylcyclopentane carboxylic acid]
4 |  | 10000 | CC(C)(C(=O)O)C1CCC(c2nc(-c3ccc(C(=O)Nc4cc(C(F)(F)F)ccn4)cc3)c3c(N)nccn23)C1 (stereo not drawn) [Example 96, 2-{3-[8-amino-1-(4-{[4-(trifluoromethyl)pyridin-2-yl]carbamoyl}phenyl)imidazo[1,5-a]pyrazin-3-yl]cyclopentyl}-2-methylpropanoic acid]
1.9 | 10000 |  | CCOc1cc(C(=O)Nc2cc(C(F)(F)F)ccn2)ccc1-c1nc([C@@H]2C[C@H]3CC[C@@H](C2)[C@H]3C(=O)O)n2ccnc(N)c12 [Example 105, (3-exo,8-syn)-3-[8-amino-1-(2-ethoxy-4-{[4-(trifluoromethyl)pyridin-2-yl]carbamoyl}phenyl)imidazo[1,5-a]pyrazin-3-yl]bicyclo[3.2.1] octane-8-carboxylic acid]
1.2 | 4320 |  | CC1(C)[C@@H](C(=O)O)CC[C@@]1(C)c1nc(-c2ccc(C(=O)Nc3cc(C(F)(F)F)ccn3)cc2)c2c(N)nccn12 [Example 142, (1S,3R)-3-[8-amino-1-(4-{[4-(trifluoromethyl)pyridin-2-yl]carbamoyl}phenyl)imidazo[1,5-a]pyrazin-3-yl]-2,2,3-trimethylcyclopentane carboxylic acid]
1 | 10000 |  | Nc1nccn2c(-c3ccc(F)c(C(=O)O)c3)nc(-c3ccc(C(=O)Nc4cc(C(F)(F)F)ccn4)cc3)c12 [Example 24, 5-[8-amino-1-(4-{[4-(trifluoromethyl)pyridin-2-yl]carbamoyl}phenyl)imidazo[1,5-a]pyrazin-3-yl]-2-fluorobenzoic acid]
0.87 | 10000 |  | CCOc1cc(C(=O)Nc2cc(C(F)(F)F)n(C)n2)ccc1-c1nc([C@H]2CC[C@@](C(=O)O)(C(C)C)C2)n2ccnc(N)c12 [Example 53, (1S,3S)-3-[8-amino-1-(2-ethoxy-4-{[1-methyl-5-(trifluoromethyl)-1H-pyrazol-3-yl]carbamoyl}phenyl)imidazo[1,5-a]pyrazin-3-yl]-1-(1-methylethyl) cyclopentane-carboxylic acid]
0.54 | 4720 |  | CCOc1cc(C(=O)Nc2cc(C(F)(F)F)ccn2)ccc1-c1nc(C23CCC(C(=O)O)(CC2)C2CC23)n2ccnc(N)c12 (stereo not drawn) [Example 100, 5-[8-amino-1-(2-ethoxy-4-{[4-(trifluoromethyl)pyridin-2-yl]carbamoyl}phenyl)imidazo[1,5-a]pyrazin-3-yl]tricyclo[3.2.2.0~2,4~] nonane-1-carboxylic acid]
0.39 | 6480 |  | Nc1nccn2c(C34CC(C(=O)O)(C3)C4)nc(-c3ccc(C(=O)Nc4cc(C(F)(F)F)ccn4)cc3)c12 [Example 34, 3-[8-amino-1-(4-{[4-(trifluoromethyl)pyridin-2-yl]carbamoyl}phenyl)imidazo[1,5-a]pyrazin-3-yl]bicyclo[1.1.1] pentane-1-carboxylic acid]
0.13 | 308 |  | Nc1nccn2c(C34CCC(C(=O)O)(CC3)CC4)nc(-c3ccc(C(=O)Nc4cc(C(F)(F)F)ccn4)cc3)c12 [Example 168, 4-[8-amino-1-(4-{[4-(trifluoromethyl)pyridin-2-yl]carbamoyl}phenyl)imidazo[1,5-a]pyrazin-3-yl]bicyclo[2.2.2] octane-1-carboxylic acid]
